Measurements from ChEMBL document CHEMBL3751782, “Synthesis and biological evaluation of quinoxaline di-N-oxide derivatives with in vitro trypanocidal activity” (Bioorg Med Chem Lett, 2016).
pIC50: −log10 of the molar value.

Legend:
Trypanosoma cruzi [1] = assay: Trypanocidal activity against Trypanosoma cruzi Tulahuen 2 epimastigotes at 25 uM after 5 days; type: functional; settings: Tulahuen 2, 120 h
Trypanosoma cruzi [2] = assay: Trypanocidal activity against Trypanosoma cruzi Tulahuen 2 epimastigotes after 5 days; type: functional, organism-based; settings: Tulahuen 2, 120 h
Vero = assay: Cytotoxicity against African green monkey Vero cells after 48 hrs by MTT assay; type: cell-based; settings: Chlorocebus sabaeus
[3] = Selectivity index, ratio of IC50 for African green monkey Vero cells to IC50 for Trypanosoma cruzi Tulahuen 2 epimastigotes; type: toxicity, cell-based; settings: read-out: Ratio IC50

SMILES	inhibition at 25 µM (Trypanosoma cruzi [1])	pIC50 (Trypanosoma cruzi [2])	pIC50 (Vero)	selectivity ratio [3]
O=C(c1ccc(F)cc1)c1c(C(F)(F)F)[n+]([O-])c2cc(Cl)c(Cl)cc2[n+]1[O-]	89.3%	5.89		
O=C(c1ccc(F)cc1)c1c(C(F)(F)F)[n+]([O-])c2cc(F)c(F)cc2[n+]1[O-]	91.8%	6.22	5.52	5
CC(=O)c1c(C(F)(F)F)[n+]([O-])c2cc(N3CCC(O)CC3)c(N3CCC(O)CC3)cc2[n+]1[O-]	15.7%	< 4.60		
CC(=O)c1c(C(F)(F)F)[n+]([O-])c2cc(F)c(N3CCCCC3)cc2[n+]1[O-]	96.9%	5.59	4.82	5.8
O=C(c1ccc(F)cc1)c1c(C(F)(F)F)[n+]([O-])c2ccc(F)cc2[n+]1[O-]	95.6%	5.96	5.36	4
O=C(c1ccco1)c1c(C(F)(F)F)nc2cc(Cl)c(N3CCOCC3)cc2[n+]1[O-]	91.7%	4.92	3.34	37.6
CC(=O)c1c(C(F)(F)F)[n+]([O-])c2cc(F)c(N3CCOCC3)cc2[n+]1[O-]	100%	5.19		
O=C(c1ccc(F)cc1)c1c(C(F)(F)F)[n+]([O-])c2ccc(Cl)cc2[n+]1[O-]	86.1%	6.00		
CC(=O)c1c(C(F)(F)F)[n+]([O-])c2cc(F)c(N3CCC(N4CCOCC4)CC3)cc2[n+]1[O-]	93.4%	5.28		
O=C(Cn1ccnc1[N+](=O)[O-])NCc1ccccc1 [BENZNIDAZOLE]	100%	5.10		
CC(=O)c1c(C(F)(F)F)[n+]([O-])c2cc(F)c(N3CCSCC3)cc2[n+]1[O-]	83.4%	5.70		
CC1CS(=O)(=O)CCN1/N=C/c1ccc([N+](=O)[O-])o1 (stereo not drawn) [NIFURTIMOX]	100%			
CC(C)C(=O)c1c(C(F)(F)F)[n+]([O-])c2cc(N3CCOCC3)c(N3CCOCC3)cc2[n+]1[O-]	66.3%	4.77		
CC(=O)c1c(C(F)(F)F)[n+]([O-])c2cc(N3CCCCC3)c(N3CCCCC3)cc2[n+]1[O-]	100%	5.64	5.35	1.7
CC(=O)c1c(C(F)(F)F)[n+]([O-])c2cc(F)c(N3CCC(O)CC3)cc2[n+]1[O-]	84.9%	5.20		
CC(C)C(=O)c1c(C(F)(F)F)[n+]([O-])c2cc(N(C)C)c(N3CCOCC3)cc2[n+]1[O-]	86%	4.97		
CCOC(=O)c1c(C(F)(F)F)nc2cc(Cl)c(N3CCOCC3)cc2[n+]1[O-]	54.6%	< 4.60		
